Assay results published in patent US20230183179A1, “NOVEL CELL METABOLISM MODULATING COMPOUNDS AND USES THEREOF” (CRESCENTA BIOSCIENCES, priority 2020, published 2023).

Experiments:
[1] = target: T1, His6 tagged human recombinant FABP4 (Homo sapiens, UniProt P15090); experiment: FABP4 TR-FRET assay: displacement of fluorescent fatty acid BODIPY FL C12; conditions: inhibition of BODIPY FL C12 binding to His6-FABP4; 1.2 μL of 1.085 mM compound in DMSO per well; triplicates, mean percent inhibition
T1 construct: purchased Cayman Chemicals 10009549
T1 sequence (P15090 whole entry): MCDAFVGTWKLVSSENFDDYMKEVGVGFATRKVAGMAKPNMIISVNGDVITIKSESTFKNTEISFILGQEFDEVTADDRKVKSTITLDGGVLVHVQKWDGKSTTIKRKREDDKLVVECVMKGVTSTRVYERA
Outline: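 TR-FRET displacement of BODIPY FL C12 from His6-FABP4 bound by Tb-anti-His6 antibody, in Tris pH 7.4 buffer with γ-globulins, NP-40 and DTT; compound stock 1.085 mM in DMSO. Read after 10 min at room temperature as 520/615 nm ratio; mean % inhibition versus DMSO from triplicates.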

[2] = tested on: differentiated 3T3-L1 mouse adipocyte cells; experiment: Adipocyte glucose consumption in differentiated 3T3-L1 cells (colorimetric glucose assay of the medium); format: cell-based; conditions: 3T3-L1, 24 h, compound 10 μM, loss of glucose from culture medium, mean fold change (compound/DMSO)
Outline: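 Differentiated 3T3-L1 mouse adipocytes (rosiglitazone/dexamethasone/IBMX/insulin induction, day 11) treated 24 h with compounds at 10 μM, 0.1% DMSO final. Medium glucose measured colorimetrically; consumption taken as glucose loss from medium versus cell-free control, expressed as mean fold change compound/DMSO ±SD.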

Row | Structure (SMILES) | inhibition at 1085 µM (stock) [1] [%] | fold induction at 10 µM [2]
1 | CCc1ccc2nc(N(C)CC(=O)O)cc(-c3cccc(C(N)=O)c3)c2c1 [2-{[4-(3-carbamoylphenyl)-6-ethylquinolin-2-yl](methyl)amino}acetic acid] | 78 | 1.07
2 | CCc1ccc2nc(OCC(=O)O)cc(-c3cccc(C(N)=O)c3)c2c1 [2-{[4-(3-carbamoylphenyl)-6-ethylquinolin-2-yl]oxy}acetic acid] | 30.4 | 0.93
3 | CCCCCc1ccc2nc(N(C)CC(=O)O)cc(-c3cccc(C(N)=O)c3)c2c1 [2-{[4-(3-carbamoylphenyl)-6-pentylquinolin-2-yl](methyl)amino}acetic acid] | 60.4 | 1.04
4 | CCCCCc1ccc2nc(OCC(=O)O)cc(-c3cccc(C(N)=O)c3)c2c1 [2-{[4-(3-carbamoylphenyl)-6-pentylquinolin-2-yl]oxy}acetic acid] | 74.2 | 1.02
5 | CCCc1ccc2nc(N(C)CC(=O)O)cc(-c3cccc(C(N)=O)c3)c2c1 [2-{[4-(3-carbamoylphenyl)-6-propylquinolin-2-yl](methyl)amino}acetic acid] | 48 | 1.07
6 | CCCc1ccc2nc(OCC(=O)O)cc(-c3cccc(C(N)=O)c3)c2c1 [2-{[4-(3-carbamoylphenyl)-6-propylquinolin-2-yl]oxy}acetic acid] | 42.9 | 1
7 | CCc1ccc2nc(N(C)CC(=O)O)cc(-c3cccc(C#N)c3)c2c1 [2-{[4-(3-cyanophenyl)-6-ethylquinolin-2-yl](methyl)amino}acetic acid] | 50.8 | 1.16
8 | CCCCCCc1ccc2nc(OCC(=O)O)cc(-c3cccc(C#N)c3)c2c1 [2-{[4-(3-cyanophenyl)-6-hexylquinolin-2-yl]oxy}acetic acid] | 39.4 | 1.02
9 | CCCCCCc1ccc2nc(OC(C)C(=O)O)cc(-c3cccc(C#N)c3)c2c1 (stereo not drawn) [2-{[4-(3-cyanophenyl)-6-hexylquinolin-2-yl]oxy}propanoic acid] | 3.3 | 1.19
10 | CCCCCc1ccc2nc(N(C)CC(=O)O)cc(-c3cccc(C#N)c3)c2c1 [2-{[4-(3-cyanophenyl)-6-pentylquinolin-2-yl](methyl)amino}acetic acid] | 65.1 | 1.23
11 | CCCCCc1ccc2nc(OCC(=O)O)cc(-c3cccc(C#N)c3)c2c1 [2-{[4-(3-cyanophenyl)-6-pentylquinolin-2-yl]oxy}acetic acid] | 10.6 | 1.01
12 | CCCCCCc1ccc2nc(N(C)CC(=O)O)cc(Oc3cccc(F)c3)c2c1 [2-{[4-(3-fluorophenoxy)-6-hexylquinolin-2-yl](methyl)amino}acetic acid] | 98.8 | 1.21
13 | CCCCCCCCc1ccc2nc(N(C)CC(=O)O)cc(Oc3cccc(F)c3)c2c1 [2-{[4-(3-fluorophenoxy)-6-octylquinolin-2-yl](methyl)amino}acetic acid] | 74.6 | 1.32
14 | CCCCCCc1ccc2nc(N(C)CC(=O)O)cc(N3CCC(F)(F)CC3)c2c1 [2-{[4-(4,4-difluoropiperidin-1-yl)-6-hexylquinolin-2-yl](methyl)amino}acetic acid] | 53.7 | 1.23
15 | CCCCCCCCc1ccc2nc(N(C)CC(=O)O)cc(Oc3ccc(F)cc3)c2c1 [2-{[4-(4-fluorophenoxy)-6-octylquinolin-2-yl](methyl)amino}acetic acid] | 78.7 | 1.41
16 | CCCCCCc1ccc2nc(N(CC(=O)O)CC(C)C)cc(-c3ccc(F)cc3)c2c1 [2-{[4-(4-fluorophenyl)-6-hexylquinolin-2-yl](2-methylpropyl)amino}acetic acid] | 78.7 | 1.18
17 | CCCCCCc1ccc2nc(N(C)CC(=O)O)cc(-c3ccc(F)cc3)c2c1 [2-{[4-(4-fluorophenyl)-6-hexylquinolin-2-yl](methyl)amino}acetic acid] | 81 | 1.3
18 | CCCCCCc1ccc2nc(N(CCC)CC(=O)O)cc(-c3ccc(F)cc3)c2c1 [2-{[4-(4-fluorophenyl)-6-hexylquinolin-2-yl](propyl)amino}acetic acid] | 57.1 | 1.13
19 | CCCCCCCCc1ccc2nc(N(CC(=O)O)CC(C)C)cc(-c3ccc(F)cc3)c2c1 [2-{[4-(4-fluorophenyl)-6-octylquinolin-2-yl](2-methylpropyl)amino}acetic acid] | 68 | 1.28
20 | CCCCCCCCc1ccc2nc(N(C)CC(=O)O)cc(-c3ccc(F)cc3)c2c1 [2-{[4-(4-fluorophenyl)-6-octylquinolin-2-yl](methyl)amino}acetic acid] | 53.8 | 1.28

Row | Structure (SMILES) | inhibition at 1085 µM (stock) [1] [%] | fold induction at 10 µM [2]
21 | CCCCCCCCc1ccc2nc(N(CCC)CC(=O)O)cc(-c3ccc(F)cc3)c2c1 [2-{[4-(4-fluorophenyl)-6-octylquinolin-2-yl](propyl)amino}acetic acid] | 53.1 | 1.2
22 | CCCCCc1ccc2nc(N(C)CC(=O)O)cc(-c3ccc(F)cc3)c2c1 [2-{[4-(4-fluorophenyl)-6-pentylquinolin-2-yl](methyl)amino}acetic acid] | 80.9 | 1.34
23 | CC(Oc1cc(-c2ccccc2)c2cc(CCc3ccccc3)ccc2n1)C(=O)O (stereo not drawn) [2-{[4-phenyl-6-(2-phenylethyl)quinolin-2-yl]oxy}propanoic acid] | 34.1 | 1.21
24 | CN(CC(=O)O)c1cc(-c2ccccc2)c2cc(OCc3ccccc3)ccc2n1 [2-{[6-(benzyloxy)-4-phenylquinolin-2-yl](methyl)amino}acetic acid] | 84.2 | 1.27
25 | CN(CC(=O)O)c1cc(-c2cccc(C(N)=O)c2)c2cc(Br)ccc2n1 [2-{[6-bromo-4-(3-carbamoylphenyl)quinolin-2-yl](methyl)amino}acetic acid] | 93.8 | 1.1
26 | NC(=O)c1cccc(-c2cc(OCC(=O)O)nc3ccc(Br)cc23)c1 [2-{[6-bromo-4-(3-carbamoylphenyl)quinolin-2-yl]oxy}acetic acid] | 19.1 | 1
27 | CN(CC(=O)O)c1cc(-c2cccc(C#N)c2)c2cc(Br)ccc2n1 [2-{[6-bromo-4-(3-cyanophenyl)quinolin-2-yl](methyl)amino}acetic acid] | 91.1 | 1.16
28 | N#Cc1cccc(-c2cc(OCC(=O)O)nc3ccc(Br)cc23)c1 [2-{[6-bromo-4-(3-cyanophenyl)quinolin-2-yl]oxy}acetic acid] | 19.9 | 0.99
29 | CCCCc1ccc2nc(N(C)CC(=O)O)cc(-c3ccccc3F)c2c1 [2-{[6-butyl-4-(2-fluorophenyl)quinolin-2-yl](methyl)amino}acetic acid] | 67 | 1.33
30 | CCCCc1ccc2nc(N(C)CC(=O)O)cc(-c3ccccc3O)c2c1 [2-{[6-butyl-4-(2-hydroxyphenyl)quinolin-2-yl](methyl)amino}acetic acid] | 93.2 | 1.19
31 | CCCCc1ccc2nc(N(C)CC(=O)O)cc(-c3ccccc3C)c2c1 [2-{[6-butyl-4-(2-methylphenyl)quinolin-2-yl](methyl)amino}acetic acid] | 99.7 | 1.27
32 | CCCCc1ccc2nc(N(C)CC(=O)O)cc(-c3cccc(C(N)=O)c3)c2c1 [2-{[6-butyl-4-(3-carbamoylphenyl)quinolin-2-yl](methyl)amino}acetic acid] | 26.1 | 1.13
33 | CCCCc1ccc2nc(OCC(=O)O)cc(-c3cccc(C(N)=O)c3)c2c1 [2-{[6-butyl-4-(3-carbamoylphenyl)quinolin-2-yl]oxy}acetic acid] | 54.5 | 1.15
34 | CCCCc1ccc2nc(N(C)CC(=O)O)cc(-c3cccc(C#N)c3)c2c1 [2-{[6-butyl-4-(3-cyanophenyl)quinolin-2-yl](methyl)amino}acetic acid] | 33.2 | 1.33
35 | CCCCc1ccc2nc(OCC(=O)O)cc(-c3cccc(C#N)c3)c2c1 [2-{[6-butyl-4-(3-cyanophenyl)quinolin-2-yl]oxy}acetic acid] | 36.2 | 1.12
36 | CCCCc1ccc2nc(OC(C)C(=O)O)cc(-c3cccc(C#N)c3)c2c1 (stereo not drawn) [2-{[6-butyl-4-(3-cyanophenyl)quinolin-2-yl]oxy}propanoic acid] | 12.7 | 1.26
37 | CCCCc1ccc2nc(N(C)CC(=O)O)cc(-c3cccc(F)c3)c2c1 [2-{[6-butyl-4-(3-fluorophenyl)quinolin-2-yl](methyl)amino}acetic acid] | 58.9 | 1.43
38 | CCCCc1ccc2nc(N(C)CC(=O)O)cc(-c3cccc(O)c3)c2c1 [2-{[6-butyl-4-(3-hydroxyphenyl)quinolin-2-yl](methyl)amino}acetic acid] | 83.8 | 1.28
39 | CCCCc1ccc2nc(N(C)CC(=O)O)cc(-c3cccc(C)c3)c2c1 [2-{[6-butyl-4-(3-methylphenyl)quinolin-2-yl](methyl)amino}acetic acid] | 82.4 | 1.4
